Experimental data as given in PubChem BioAssay AID248 (DTP/NCI, 2004).
Where “and” joins values, the source holds several entries; their conditions need not be identical. Equal values may be shown once. Toxic doses and inconclusive results are not listed.

Tested on: L1210 leukemia ip in BDF1 mice, survival T/C
Experiment: NCI In Vivo Anticancer Drug Screen. Data for tumor model L1210 Leukemia (intraperitoneal) in B6D2F1 (BDF1) mice
Details: endpoint: mean survival time, higher = longer survival
Procedure, shortened: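 In this screen, tumor-bearing mice given compound are compared to those given vehicle, and their survival values are reported as a treated-to-control quotient.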

[1] = dose: 100.0 mg/kg/injection, schedule: Q01DX009 (ip), vehicle: saline with Tween-80
[2] = dose: 200.0 mg/kg/injection, schedule: Q01DX009 (ip), vehicle: saline with Tween-80
[3] = dose: 400.0 mg/kg/injection, schedule: Q01DX009 (ip), vehicle: saline with Tween-80
[4] = dose: 100.0 mg/kg/injection, schedule: Q04DX003 (ip), vehicle: Klucel (hydroxypropylcellulose) (HPC)
[5] = dose: 200.0 mg/kg/injection, schedule: Q04DX003 (ip), vehicle: Klucel (hydroxypropylcellulose) (HPC)
[6] = dose: 400.0 mg/kg/injection, schedule: Q04DX003 (ip), vehicle: Klucel (hydroxypropylcellulose) (HPC)

With `CC(C)OC(=O)Nc1ccc(Cl)cc1` the T/C [1] was 94 % of control, the T/C [2] was 97 % of control and the T/C [3] was 94 % of control.
For `Cn1c(=O)c2c(nc(C3CC=CCC3)n2C)n(C)c1=O` (stereo not drawn), the T/C (dose: 50.0 mg/kg/injection, schedule: Q01DX001 (ip), vehicle: other) was 98 % of control.
For `CCCCCCCCCCSCCO`, the T/C (dose: 100.0 mg/kg/injection, schedule: Q01DX001 (ip), vehicle: saline) was 102 % of control, the T/C (dose: 200.0 mg/kg/injection, schedule: Q01DX001 (ip), vehicle: saline) was 102 % of control and the T/C (dose: 400.0 mg/kg/injection, schedule: Q01DX001 (ip), vehicle: saline) was 97 % of control.
`CCN=C(c1ccc(NC(=O)c2ccc(C(=O)Nc3ccc(C(=NCC)N(CC)C(=O)Nc4ccc(OCC)cc4)cc3)cc2)cc1)N(CC)C(=O)Nc1ccc(OCC)cc1` was tested, and the T/C (dose: 3.75 mg/kg/injection, schedule: Q01DX015 (ip), vehicle: methylcellulose (MC)) was 122 % of control and the T/C (dose: 7.5 mg/kg/injection, schedule: Q01DX015 (ip), vehicle: methylcellulose (MC)) was 150 % of control.
In the case of `CCCCCCC(CO)CCCC` (stereo not drawn), the T/C [4] is reported as 97 % of control, the T/C [5] is reported as 97 % of control and the T/C [6] is reported as 100 % of control.
In the case of `CC1(C)CC=CC(COC(=O)c2ccccc2C(=O)O)C1` (stereo not drawn), the T/C (dose: 100.0 mg/kg/injection, schedule: Q01DX001 (ip), vehicle: carboxymethylcellulose (CMC)) is reported as 102 % of control, the T/C (dose: 200.0 mg/kg/injection, schedule: Q01DX001 (ip), vehicle: carboxymethylcellulose (CMC)) is reported as 107 % of control and the T/C (dose: 400.0 mg/kg/injection, schedule: Q01DX001 (ip), vehicle: carboxymethylcellulose (CMC)) is reported as 96 % of control.
With `Nc1cccc2c1C(=O)C=CC2=O` the T/C (dose: 0.78 mg/kg/injection, schedule: Q01DX009 (ip), vehicle: saline) was 103 % of control, the T/C (dose: 1.56 mg/kg/injection, schedule: Q01DX009 (ip), vehicle: saline) was 101 % of control and the T/C (dose: 1.56 mg/kg/injection, schedule: Q04DX003 (ip), vehicle: saline) was 95 % of control. For the same molecule, the T/C (dose: 3.12 mg/kg/injection, schedule: Q01DX009 (ip), vehicle: saline) was 98 % of control, the T/C (dose: 3.12 mg/kg/injection, schedule: Q04DX003 (ip), vehicle: saline) was 103 % of control and the T/C (dose: 4.6 mg/kg/injection, schedule: Q01DX009 (ip), vehicle: saline) was 104 % of control.
With `O=C(N/N=C/c1ccc(O)cc1)C(c1ccccc1)N1CCCCC1` (stereo not drawn) the T/C (dose: 100.0 mg/kg/injection, schedule: Q01DX001 (ip), vehicle: other) was 102 % of control, the T/C (dose: 200.0 mg/kg/injection, schedule: Q01DX001 (ip), vehicle: other) was 93 % of control and the T/C (dose: 400.0 mg/kg/injection, schedule: Q01DX001 (ip), vehicle: other) was 96 % of control.
In the case of `O=C(Nc1cccc(C(F)(F)F)c1)c1ccc(F)cc1`, the T/C (dose: 100.0 mg/kg/injection, schedule: Q04DX002 (ip), vehicle: Klucel (hydroxypropylcellulose) (HPC)) is reported as 91 % of control, the T/C (dose: 200.0 mg/kg/injection, schedule: Q04DX002 (ip), vehicle: Klucel (hydroxypropylcellulose) (HPC)) is reported as 102 % of control and the T/C (dose: 400.0 mg/kg/injection, schedule: Q04DX002 (ip), vehicle: Klucel (hydroxypropylcellulose) (HPC)) is reported as 88 % of control.
`CCC(C)C(N)C(=O)O` (stereo not drawn) was tested, and the T/C [4] was 103 % of control, the T/C [5] was 106 % of control and the T/C [6] was 101 % of control.
In the case of `Cc1ccc(Cl)cc1NC(=O)Nc1cc(Cl)c(Cl)cc1C`, the T/C (dose: 50.0 mg/kg/injection, schedule: Q04DX003 (ip), vehicle: saline with Tween-80) is reported as 94 % of control and 88 % of control, the T/C (dose: 100.0 mg/kg/injection, schedule: Q01DX001 (ip), vehicle: saline with Tween-80) is reported as 100 % of control and the T/C [1] is reported as 95 % of control and 97 % of control. For the same molecule, the T/C (dose: 100.0 mg/kg/injection, schedule: Q04DX002 (ip), vehicle: saline with Tween-80) was 95 % of control and 106 % of control, the T/C (dose: 100.0 mg/kg/injection, schedule: Q04DX003 (ip), vehicle: saline with Tween-80) was 96 % of control and the T/C (dose: 200.0 mg/kg/injection, schedule: Q01DX001 (ip), vehicle: saline with Tween-80) was 86 % of control. For the same molecule, the T/C [2] was 93 % of control and 97 % of control, the T/C (dose: 200.0 mg/kg/injection, schedule: Q04DX002 (ip), vehicle: saline with Tween-80) was 97 % of control and 88 % of control and the T/C (dose: 400.0 mg/kg/injection, schedule: Q01DX001 (ip), vehicle: saline with Tween-80) was 89 % of control. The T/C [3] was 98 % of control and 105 % of control, the T/C (dose: 400.0 mg/kg/injection, schedule: Q04DX002 (ip), vehicle: saline with Tween-80) was 101 % of control and 92 % of control and the T/C (dose: 400.0 mg/kg/injection, schedule: Q04DX003 (ip), vehicle: saline with Tween-80) was 95 % of control and 88 % of control.
For `Oc1ccccc1COCc1ccccc1O`, the T/C (dose: 100.0 mg/kg/injection, schedule: Q01DX001 (sc), vehicle: olive oil, sesame oil, peanut oil) was 104 % of control, the T/C (dose: 100.0 mg/kg/injection, schedule: Q04DX003 (sc), vehicle: olive oil, sesame oil, peanut oil) was 102 % of control and the T/C (dose: 200.0 mg/kg/injection, schedule: Q01DX001 (sc), vehicle: olive oil, sesame oil, peanut oil) was 98 % of control. For the same molecule, the T/C (dose: 200.0 mg/kg/injection, schedule: Q04DX003 (sc), vehicle: olive oil, sesame oil, peanut oil) was 108 % of control, the T/C (dose: 400.0 mg/kg/injection, schedule: Q01DX001 (sc), vehicle: olive oil, sesame oil, peanut oil) was 100 % of control and the T/C (dose: 400.0 mg/kg/injection, schedule: Q04DX003 (sc), vehicle: olive oil, sesame oil, peanut oil) was 108 % of control.
